Experimental findings from the NIST ThermoML archive (doi:10.1021/je0505265) are described below.

The conditions of the series: Crystal; DTA.

Numbers after ± are expanded uncertainties.

`CC[C@H]1OC(=O)[C@H](C)[C@@H](O[C@H]2C[C@@](C)(OC)[C@@H](O)[C@H](C)O2)[C@H](C)[C@@H](O[C@@H]2O[C@H](C)C[C@H](N(C)C)[C@H]2O)[C@](C)(O)C[C@@H](C)C(=O)[C@H](C)[C@@H](O)[C@]1(C)O.O.O` [erythromycin A dihydrate]: the Normal melting temperature was 137.7 ± 0.5 °C.
